Assay: gradient 5% acetonitrile 3 min, to 50% in 2 min, to 85% in 15 min, held 3 min, 100 µL/min
Settings: column: Zorbax Extend-C18 2.1 x 50 mm; eluents: water / acetonitrile, 0.1% formic acid
Outline: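 In both positive and negative ionization mode, a quadrupole time-of-flight mass spectrometer coupled to HPLC analyzed pure standards run in mixtures of ~100 molecules. The Zorbax Extend-C18 column (2.1 × 50 mm, 1.8 μm) was operated at 100 μL/min with water and acetonitrile, each containing 0.1% formic acid. The dead volume was 40 μL and the dwell volume 900 μL. Retention time came from adduct peaks that were computationally picked and individually inspected by hand.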

| Structure (SMILES) | RP-LC retention time [s] |
| --- | --- |
| CCn1nc(C)c(S(=O)(=O)N2CCN(C(=O)C(C)Oc3cccc(Cl)c3)CC2)c1C (stereo not drawn) | 850 |
| O=C(NCc1csc(-c2ccccc2)n1)C1CCN(S(=O)(=O)c2cccc(F)c2)CC1 | 912 |
| COc1ccc(NC(=O)N2C[C@@H](F)C[C@H]2C(=O)N2CCc3ccccc3C2)cc1OC | 732 |
| Cc1cc(Br)ccc1-c1ccc(CNCCCN(C)C)o1 | 927 |
| Cc1ccc(NC(=O)Cn2c(=O)n(-c3ccccc3)c(=O)c3c2cc(C)n3C)cc1F | 868 |
| CCCN1C(=O)COc2ccc(-c3noc(-c4ccc(OCC)cc4)n3)cc21 | 1320 |
| Cc1cccc(-c2noc(C3CCCN3C(=O)c3ccc4c(c3)OCO4)n2)c1 (stereo not drawn) | 997 |
| CCOC(=O)N1CCN(C(=O)CSc2ccc(-n3cccn3)nn2)CC1 | 657 |
| CCc1n[nH]c(CC2CCN(C(=O)C3(c4ccccc4)CC3)CC2)n1 | 608 |
| Cc1oc2c(c(C)nn2-c2ccccc2)c(=O)c1Cl | 954 |
| CCOC(=O)c1sc(N2CCN(c3ccccc3)CC2)nc1N | 931 |
| CCCn1c(=O)sc2cc(S(=O)(=O)N3CCC(C(=O)Nc4cc(C)ccn4)CC3)ccc21 | 844 |
| Cc1noc(C)c1-c1ccc(S(=O)(=O)N2CCCc3ccccc32)cc1 | 1060 |
| CCc1csc(-c2cn(CC(=O)NCc3ccc(Cl)cc3)cn2)n1 | 724 |
| CCCS(=O)(=O)N1[C@H]2CC[C@@H]1c1cnc(-c3ccc(F)cc3)nc1C2 | 1010 |
| Cc1oc2ncnc(N3CCCC(C(=O)N4CCC(C(N)=O)CC4)C3)c2c1C (stereo not drawn) | 620 |
| Cn1nc(-c2ccncc2)nc1C1CN(S(=O)(=O)c2cc(F)ccc2F)C1 | 638 |
| CSc1cccc(NC(=O)Cc2nnc(-c3ccc4ncccc4c3)o2)c1 | 753 |
| O=C(Cn1cnc(-c2ccc(F)cc2)cc1=O)NCc1cccs1 | 703 |
| CCn1c(=O)sc2cc(S(=O)(=O)N3CCC(C(=O)Nc4cc(C)cc(C)c4)CC3)ccc21 | 932 |
| N#Cc1ccc(C(=O)N2CCCC2c2nc(-c3cccc(C(F)(F)F)c3)no2)cc1 (stereo not drawn) | 1060 |
| Cc1nc2cc(-c3noc(-c4ccc(C)c(C)c4)n3)ccc2o1 | 1280 |

| Structure (SMILES) | RP-LC retention time [s] |
| --- | --- |
| COc1ccc(NC(=O)N2[C@H]3CC[C@@H]2c2cncnc2C3)cc1F | 649 |
| O=C(NC1CCCCC1)c1ccc2ncnc(N3CCCC3)c2c1 | 636 |
| CC1CCN(c2nc(-c3ccc(Br)cc3)nc3ccccc23)CC1 | 955 |
| Cc1ccc(NC(=O)C2CCCN(C(=O)C3Sc4ccccc4NC3=O)C2)cc1F (stereo not drawn) | 844 |
| Cc1nc(Cn2cccc2C(=O)Nc2ccc(C)c(Cl)c2)no1 | 954 |
| COc1ccccc1-n1ccn2cc(-c3ccc4c(c3)OCO4)nc2c1=O | 776 |
| Nc1ncnc2sc3c(c12)CCCC3 | 588 |
| COc1ccc(Cl)c2c(=O)c3c([nH]c12)CCN(CC(=O)Nc1cccc(Cl)c1C)C3 | 651 |
| COc1cc(C2CC(=O)c3cnc(N4CCN(C)CC4)nc3C2)cc(OC)c1OC (stereo not drawn) | 628 |
| O=C(O)C1CCN(c2nc3ccc(-c4ccncc4)nc3s2)CC1 | 588 |
| COc1ccc(-c2noc(Cn3nc(-c4ccc(Cl)cc4)ccc3=O)n2)cc1 | 1080 |
| O=C(Nc1ccc2c(c1)OCO2)N1CCC2(CC1)Nc1cc(F)ccc1-n1cccc12 | 1000 |
| O=C(c1ccccc1Br)N1CCN(c2cc(-c3cccs3)[nH]n2)CC1 | 761 |
| COC(=O)c1cnc2nc(C)ccc2c1Nc1ccc(Cl)cc1F | 711 |
| Cc1ccn2cc(-c3ccc(NS(=O)(=O)c4ccc(Cl)c(Cl)c4)cc3)nc2n1 | 743 |
| N#CCSc1nnc2sc3ccccc3n12 | 671 |
| COc1ccc2[nH]c3c(c2c1)CCNC31CCN(Cc2ccc(F)cc2F)CC1 | 580 |
| Cc1cccc(S(=O)(=O)N2CCC(C)(C(=O)NCc3ccc(F)cc3)CC2)c1 | 936 |
| COc1ccc(-c2cn3cccnc3n2)cc1NC(=O)c1ccccc1Br | 685 |
| CCCCn1cc(S(=O)(=O)Nc2ccc(F)cc2)c2cccnc21 | 936 |
| CCCC(=O)Nc1ccc(OCc2cc(C(=O)NC(C)CC)no2)cc1 (stereo not drawn) | 819 |
| O=C(Cn1cncc(-c2nc(-c3cccs3)cs2)c1=O)Nc1cccc(Cl)c1 | 941 |

| Structure (SMILES) | RP-LC retention time [s] |
| --- | --- |
| CC(C)c1ccc(NC(=O)C2CC(=O)N(CCc3c[nH]c4ccc(F)cc34)C2)cc1 (stereo not drawn) | 929 |
| CCSc1nnc(NC(=O)c2ccc(OC)c([N+](=O)[O-])c2)s1 | 802 |
| CC(=O)N1c2ccc(S(=O)(=O)N3CCCC3C(=O)NCc3ccc4c(c3)OCO4)cc2CC1C (stereo not drawn) | 779 |
| O=C(NCc1ccccc1)C1CCCN(c2nc3ccsc3c(=O)n2Cc2ccccc2)C1 (stereo not drawn) | 902 |
| CCc1cc(C(=O)Nc2ccc(Cl)cc2)nc2ccnn12 | 1080 |
| CC(C)c1nc(-c2ccc(C(=O)NCc3noc(COc4ccccc4)n3)cc2)no1 | 998 |
| COCCNc1nc(Nc2ccc(C)c(C)c2)c2nccnc2n1 | 597 |
| COc1ccc(-n2c(=O)c(C(=O)Nc3ccc(F)c(Cl)c3)c(O)c3cccnc32)cc1 | 1370 |
| CCn1c(CN(c2ccc(F)cc2)S(C)(=O)=O)nnc1SCc1nnc(-c2ccccc2)o1 | 760 |
| CCS(=O)(=O)Nc1ccc(-c2noc(-c3ccc4c(c3)OCO4)n2)cc1 | 954 |
| Cn1c(C(O)c2ccccc2)nc2ccccc21 (stereo not drawn) | 545 |
| CCC(=O)N1CCc2c([nH]c3ccc(Cl)cc23)C12C(=O)N(C)c1ccccc12 (stereo not drawn) | 901 |
| O=C(CSc1cc(N2CCN(c3ccccc3F)CC2)ncn1)NCc1cccs1 | 931 |
| Cc1ccc(NS(=O)(=O)c2ccc3c(c2)C(=O)N(C)c2ncccc2O3)c(C)c1 | 986 |
| CCc1onc(C)c1C1CCCN1C(=O)Cc1ccc(OC)c(OC)c1 (stereo not drawn) | 718 |
| COc1ccc(NC(=O)Cn2nc3c(Oc4cccc(F)c4)nccn3c2=O)cc1 | 814 |
| O=S(=O)(NC1CCCCCCC1)c1ccc2c(c1)-c1oncc1CO2 | 1030 |
| O=C(CCCc1ccccc1)NCC(=O)N1CCN(c2ccccn2)CC1 | 605 |
| Cc1ccc(-c2cn3cccc(C)c3n2)cc1NS(=O)(=O)c1ccc(Cl)cc1 | 714 |
| O=C(Nc1ccc(-c2nc(-c3ccccc3)co2)cc1)c1cccs1 | 1100 |
| O=C(Nc1ccc(C2(C(=O)N3CCN(c4ccc(F)cc4)CC3)CCC2)cc1)C1CC1 | 922 |
| O=S(=O)(Nc1ccccc1F)c1ccc(-c2nnc(C3CCC3)o2)o1 | 856 |

| Structure (SMILES) | RP-LC retention time [s] |
| --- | --- |
| CC1Oc2ccc(-c3csc(NC(=O)c4ccc(Cl)cc4)n3)cc2N(C)C1=O (stereo not drawn) | 1040 |
| O=C(CN1C(=O)C(C(=O)N2CCCCC2)Sc2ccccc21)NCCC1=CCCCC1 (stereo not drawn) | 1120 |
| O=C1CC(c2nc(-c3ccc4c(c3)OCO4)no2)CN1c1ccc2c(c1)OCCO2 (stereo not drawn) | 895 |
| O=C(Nc1ccc(N2CCN(c3ccccc3)C2=O)nc1)c1ccc(Br)o1 | 892 |
| CN(C)CCCOc1nn(Cc2ccccc2)c2ccccc12 | 750 |
| O=C(NCc1ccco1)Nc1ccc([N+](=O)[O-])cc1 | 852 |
| Cc1c(Cl)cccc1NC(=O)Nc1cccc(-c2ccc(N3CCOCC3)nn2)c1 | 753 |
| Cc1cccc(S(=O)(=O)N2C[C@H]3CN(S(=O)(=O)c4ccc(C#N)cc4)C[C@@H](C2)O3)c1 | 945 |
| CCn1cc(C)c(C(=O)O)c1CC(=O)N(C)Cc1ccccc1 | 772 |
| Cc1oc(C2CCN(S(=O)(=O)c3cccs3)CC2)nc1C(=O)N1CCCC1 | 856 |
| CN(CCCNC(=O)CN1C(=O)CSc2cccn2-c2ccccc21)Cc1ccccc1 | 677 |
| O=C(Nc1cccc(-c2cn3cccnc3n2)c1)c1ccc(F)c(F)c1 | 706 |
| CN1C(=O)c2cc(C(=O)NCCCN3CCCC3)nn2CC1(C)C(=O)NCc1ccccc1 (stereo not drawn) | 589 |
| Cc1ccccc1-c1noc(-c2cccnc2N2CCN(C)CC2)n1 | 670 |
| COCCN(C)Cc1ccc(CC2CCN(C(=O)C3(c4ccc(OC)cc4)CC3)CC2)cc1 | 691 |
| COC(=O)C(Cc1ccccc1)NC(=O)N1CCCn2nc(-c3cccs3)cc2C1 (stereo not drawn) | 841 |
| CC(NC(=O)c1ccc2nc(-c3ccc(Cl)cc3)cn2c1)c1cccnc1 (stereo not drawn) | 603 |
| CN(C)CCNc1ncnc2c1cnn2-c1cccc(Cl)c1 | 648 |
| Cc1ccc(NC(=O)Cn2nc(C(=O)N3CCCC3)c3ccccc32)cc1F | 884 |
| C=CCN1C(=O)COc2ccc(-c3csc(NC(=O)CCC)n3)cc21 | 894 |
| CCc1ccccc1NC(=O)Cc1c(C)nn(-c2nc(-c3ccccc3)cs2)c1C | 704 |
| CCCN1C(=O)CCc2cc(NS(=O)(=O)c3ccccc3C(F)(F)F)ccc21 | 860 |

Source: the METLIN SMRT retention time set (Domingo-Almenara et al. 2019)
